The text below walks through data of patent US6586204B2, “Apoptosis gene EI24, compositions, and methods of use” (Apoptosis Technology, Inc., priority 1996, dated 2003).

The subject of one assay is EI24 mRNA. Nature of the assay: Northern blot of E1A/ras transformed murine embryonic fibroblasts, EI24 probe. The class given is cell-based. The procedure:
(§1) Northern blot showing induction of EI24 RNA by p53 in E1A/ras transformed murine embryonic fibroblasts (MEFs). 1.0 μg of poly-A^+ RNA was loaded per lane. p53^+/+ and p53^−/− MEFs were left untreated, or treated with 50 μM etoposide for 6 hours, as indicated (lanes 1-4). Alternately, p53^−/− MEFs expressing either empty vector (pBabe Puro), or a tamoxifen-regulatable p53 (p53ER™) were left untreated, or treated with 3.3 μM tamoxifen (TMX) for 16 hours (lanes 5-8). The northern blot was hybridized sequentially with probes for EI24, p21/WAF1 and tubulin.
E1A and ras transformed mouse embryo fibroblasts and expression of the p53-ER™ fusion protein. Stable cell lines of p53^+/+ and p53^−/− MEFs expressing the oncogenes E1A and T24 H-ras were generated as described previously (Lowe S. W., Jacks T., Housman D. E. and Ruley H. E. (1994) Proc. Natl. Acad. Sci. USA, 91, 2026-2030). The plasmid for expression of the p53ER™ fusion protein, pBabe Puro p53ER™ G525R, using the retroviral vector pBabe Puro (Morgenstern J. P. and Land H. (1990) Nucl. Acids Res., 18, 3587-3596), was received as a generous gift from Trevor Littlewood (Imperial Cancer Research Fund, London). In brief, this plasmid contains the ˜1.3 kb BamHI fragment of human p53 from pSV53her (Roemer K. and Friedmann T. (1993) Proc. Natl. Acad. Sci. USA, 90, 9252-9256) fused to the ligand-binding domain of the murine estrogen receptor carrying a point mutation at amino acid 525 that renders the receptor unable to bind estradiol but able to bind tamoxifen or 4-hydroxy tamoxifen (Danielian P., White R., Hoare S., Fawell S. and Parker M. (1993) Mol Endocrinol, 7, 232-240; Littlewood T. D., Hancock D. C., Danielian P. S., Parker M. G. and Evan G. I. (1995) NAR, 23, 1686-1690). For induction of wild-type p53 activity, p53ER™ transfected p53^−/− cells were treated with […] tamoxifen (Sigma). […]

The test system of the next assay is p21/WAF1 mRNA. Nature of the assay: Northern blot of E1A/ras transformed murine embryonic fibroblasts, p21/WAF1 probe. Type of assay: cell-based. The procedure: as §1
E1A and ras transformed mouse embryo fibroblasts and expression of the p53-ER™ fusion protein. Stable cell lines of p53^+/+ and p53^−/− MEFs expressing the oncogenes E1A and T24 H-ras were generated as described previously (Lowe S. W., Jacks T., Housman D. E. and Ruley H. E. (1994) Proc. Natl. Acad. Sci. USA, 91, 2026-2030). The plasmid for expression of the p53ER™ fusion protein, pBabe Puro p53ER™ G525R, using the retroviral vector pBabe Puro (Morgenstern J. P. and Land H. (1990) Nucl. Acids Res., 18, 3587-3596), was received as a generous gift from Trevor Littlewood (Imperial Cancer Research Fund, London). […]

For assay [1], the system named is 2.4 kb mRNA recognized by 11G10 (EI24). Nature of the assay: Northern blot of etoposide-treated 3T3 cells, 11G10 probe. As to conditions: 50 μM etoposide.
The next assay deals with NIH3T3 fibroblasts. In words: Etoposide exposure of asynchronously growing NIH3T3 fibroblasts, cell killing and microscopic observation. The class given is cell-based, Murine. As to conditions: 50 μM etoposide.
The subject of assay [2] is 5 kb mRNA detected by 38T19 probe. In words: Northern blot of etoposide-treated 3T3 cells, 38T19 probe. The class given is cell-based, Murine. As to conditions: 50 μM etoposide, 6 to 11 hours after treatment. Here is the method:
Induction of the 2.4 kb mRNA appeared to be maximal by 6 hours after etoposide exposure, representing a 7-fold increase. […] The levels of this mRNA were highest in untreated cells, and decreased at 6 to 11 hours after etoposide treatment, corresponding to a 4-fold reduction.

On to `COc1cc([C@@H]2c3cc4c(cc3[C@@H](O[C@@H]3O[C@@H]5CO[C@@H](C)O[C@H]5[C@H](O)[C@H]3O)[C@H]3COC(=O)[C@H]23)OCO4)cc(OC)c1O` [etoposide, Etoposide], for which the “induction of EI24 mRNA” value is recorded as “further induced” in the assay with EI24 mRNA (etoposide 50 μM, 6 hours, E1A/ras-transformed p53+/+ cells) and “No induction of EI24” with EI24 mRNA (etoposide 50 μM, 6 hours, E1A/ras-transformed p53−/− cells). Besides, the “induction of WAF1 RNA” value in the assay with p21/WAF1 mRNA (etoposide, p53−/− MEFs, maximal level lower than in p53+/+ cells) is on record as “WAF1 RNA was induced”. Also, in assay [1] (3 hours post treatment), the “increase of 2.4 kb mRNA (EI24)” value was found to be 4 fold. Further, the “increase of 2.4 kb mRNA (EI24), maximal induction” value in assay [1] (6 hours after exposure) is recorded as 7 fold. Besides, the “signs of apoptosis by microscopic observation” value with NIH3T3 fibroblasts (for at least 6 hours following exposure) was “no obvious signs of apoptosis”. In addition, the cell killing result with NIH3T3 fibroblasts (within 24 hours, asynchronously growing NIH3T3 cells) is given as “kill the majority of asynchronously growing cells”. Besides, in assay [2], the “reduction of 5 kb mRNA” value was found to be 4 fold.
As to `CC/C(=C(\c1ccccc1)c1ccc(OCCN(C)C)cc1)c1ccccc1` [tamoxifen], the “induction of EI24 mRNA” value with EI24 mRNA (tamoxifen, p53−/− control cell line (pBabe Puro) with empty vector) is reported as “No EI24 induction”. The “induction of WAF1 mRNA” value with p21/WAF1 mRNA (tamoxifen treatment, p53ER p53−/− cells) is given as “strongly induced”.
